Test results taken from patent US20250082664A1, “NUCLEOSIDE FORMULATION” (PHION THERAPEUTICS LTD, priority 2021, published 2025).

What was measured:
[1] = Ioka T, et al. 2013; cited from earlier work
BxPC-3 cells = assay: Cell cycle analysis (propidium iodide, FACS); type: cell-based; conditions: 48 hours following treatment, 2 μM (1 μg) for 5 h, manual formulations
Description: 1.5×10^5 BxPC-3 cells were plated in 6-well plates (Nunc, UK) and left to adhere for 24 h. Cells were transferred to serum free media for 24-h, to ensure synchronisation of cells. Subsequently, cells were incubated with RALA/dFdCTP nanoparticles at a concentration of 2 μM (1 μg) for 5 h before removal of treatment media and the addition of fresh complete media. 48 h following treatment, cells were trypsinsed and fixed in ice-cold 70% ethanol for 1 hour at 4° C. Cells were washed twice in Phosphate Buffered Saline (PBS) for 5 min, before resuspension in 500 μL PBS and the addition of 50 μL of 100 μg/ml RNase (Invitrogen, UK). 10 minutes prior to running samples on fluorescence-activated cell sorting (FACS), 10 μl of a 100 μg/ml stock of propidium iodide (PI) was added. Controls include: untreated; dCTP (negative control); RALA/dCTP (RALA control); dFdCTP (drug control); and gemcitabine (comparator control).
A cell cycle analysis following treatment with RALA/dFdCTP was undertaken. If dFdCTP had been successfully delivered to cells, it would be incorporated during DNA polymerase, preventing DNA chain elongation. This would ultimately prevent cells from actively proliferating. This means that during cell cycling, the cycle will be arrested at the S-phase. Therefore, if there are a higher percentage of the cells in the (G0/G1+−S) phases than compared to the G2 phase, it is an indicator that dFdCTP has affected the cell cycle.

red blood cell (RBC) = assay: Haemolysis assay; type: cell-based; conditions: ovine RBC, equivalent of 10-30 μg dFdCTP, 1 h at 37° C., isotonic trehalose solution
Description: Defibrinated ovine whole blood (5 ml, TCS Biosciences Ltd, UK) was centrifuged at 500 g in citrate-phosphate buffer (15 ml, 0.1 M citric acid, C6HsO7, and 0.2 M disodium hydrogen phosphate, Na2HPO4) for 20 min to separate erythrocytes. The erythrocytes were subsequently washed three times with 20 mL of citrate-phosphate buffer by centrifugation and re-suspended in citrate-phosphate buffer solution at a concentration of 1×10^8 cells/mL. A Countess II automated cell counter (ThermoFisher, UK) was used to count erythrocytes by first diluting the erythrocyte suspension 1:10,000 in buffer. Subsequently, isotonic solutions (of osmolality in the range 290-310 mOsmol/kg) of RALA/dFdCTP (MR2.0) nanoparticles mixed with trehalose, or dFdCTP and trehalose was added to the erythrocyte suspension, with the equivalent of 10-30 μg dFdCTP added, and the solution incubated for 1 h at 37° C. Following incubation, the erythrocyte suspensions were centrifuged for 90 s at 400 g to form a cell pellet. Absorbance of the supernatant was measured via a Nanodrop 2000c UV-Vis spectrophotometer (Thermo Scientific, UK) at 541 nm. 1% Triton X-100 was used as a positive control representing 100% haemolysis; and citrate-phosphate buffer at pH 7.4 was used as a negative control.

Nc1ccn([C@@H]2O[C@H](CO)[C@@H](O)C2(F)F)c(=O)n1 [Gemcitabine, 2′,2′-difluoro-2′-deoxycytidine]
overall clinical response rate [1]: 6% | Cells in (G0/G1 + S) Phase (BxPC-3 cells): 60.2%

Nc1ccn([C@H]2C[C@H](O)[C@@H](COP(=O)(O)OP(=O)(O)OP(=O)(O)O)O2)c(=O)n1 [dCTP, deoxycytidine triphosphate]
Cells in (G0/G1 + S) Phase (BxPC-3 cells): 49.9%

Nc1ccn([C@@H]2O[C@H](COP(=O)(O)OP(=O)(O)OP(=O)(O)O)[C@@H](O)C2(F)F)c(=O)n1 [dFdCTP, 2′,2′-difluorodeoxycytidine 5′-triphosphate]
Cells in (G0/G1 + S) Phase (BxPC-3 cells): 66.4% | haemolysis (red blood cell (RBC)): > 20%
